In brackets after ≈: the same amount, converted by molar mass. Counter-ions that a name gives are not always drawn. Like-named read-outs stand apart in the source and are kept apart here.
Legend:
E. coli ATCC 25922 = assay: Broth microdilution MIC, E. coli ATCC 25922; type: cell-based; details: Escherichia coli
Procedure, shortened: (§1)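 Visual MIC readout after 16-20 h at 37° C in CLSI-format microdilution. Compounds tested as 2-fold series against a 5×10^5 CFU/mL inoculum in cation-supplemented Mueller-Hinton broth.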

E. coli AG100 = assay: Broth microdilution MIC, E. coli AG100 (wild-type parent); type: cell-based; details: Escherichia coli; wild-type parent E. coli AG100, broth microdilution; read-out: MIC E. coli AG100
Procedure, shortened: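 Broth microdilution in cation-supplemented Mueller-Hinton broth, 2-fold serial compound dilutions, inoculum 5×10^5 CFU/mL from 3-5 h log culture.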

E. coli 901C = assay: microbe, parasite or virus in culture; type: cell-based; details: Escherichia coli; hyper-permeable E. coli 901C, broth microdilution; read-out: MIC E. coli 901C
Procedure, shortened: as §1

E. coli AG100A = assay: microbe, parasite or virus in culture; type: cell-based; details: Escherichia coli, read-out: MIC E. coli AG100A
Procedure, shortened: as §1

K. pneumoniae UMM = assay: microbe, parasite or virus in culture; type: cell-based; details: Klebsiella pneumoniae; K. pneumoniae UMM producing SHV-5 and KPC-2; read-out: MIC K. pneumoniae UMM
Procedure, shortened: as §1

[1] = system: engineered strain of Escherichia coli harboring CTX-M15; assay: microbe, parasite or virus in culture; type: cell-based; details: for MIC: Escherichia coli, read-out: Microbiological Activity (MIC in mg/L), E. coli DH5α/pLBII-CTX-M15, engineered strain producing CTX-M15
[2] = system: E. coli DH5α empty pLBII vector control strain; assay: microbe, parasite or virus in culture; type: cell-based, Escherichia coli; details: for MIC: Escherichia coli, read-out: Microbiological Activity (MIC in mg/L), E. coli DH5α/pLBII
Protocol: Briefly, cryo-preserved bacterial cultures of challenge strains are streaked for isolation on appropriate agar medium, in this case Mueller Hinton II agar. Following incubation to allow growth of the colonies, plates are sealed with parafilm and stored refrigerated for up to two weeks. For preparation of assay inoculum and to ensure low variability, at least 5 colonies are picked from the agar plates with an inoculating loop and aseptically transferred to a culture tube containing 3 mL of Mueller-Hinton Broth (supplemented with divalent cations to required levels based on Manufacturers' certification). The broth culture is grown for 3-5 hours at 37° C. with shaking at 200 rpm. Meanwhile, 2-fold serial dilutions of test compounds are conducted in a 96 well plate with a final volume of 75 μL per well at 2-fold the final desired concentration. After the dilution plates are set up the growing cultures are then diluted in a cuvette containing MH II broth and the optical density is measured at 600 nm. The Inoculum is diluted such that 75 μL of this culture in Mueller-Hinton Broth results in a starting bacterial concentration of 5×10^5 CFU/mL when added to the dilution plates. The plates are incubated for 16-20 hours at 37° C. The MIC values are read visually as the lowest concentration well with no bacterial growth.
To determine if test compounds were affected by CTX-M15, the most abundant extended spectrum […] in clinical settings worldwide, the inhibition of the growth of an engineered strain of Escherichia coli harboring CTX-M15 was tested. This strain was constructed by cloning the gene encoding CTX-M15 into the NdeI and BamHI restriction endonuclease sites of plasmid pLBII, placing the gene(s) under the control of the Lac promoter. The constructed expression plasmid for CTX-M15 was used to transform competent E. coli DH5α cells to make the engineered strain, including an empty pLBII vector control strain. The classic cell based broth microdilution MIC assay was employed as described above with the addition of control antibiotics, known to be degraded by β-lactamases (Ceftazidime, piperacillin and piperacillin+tazobactam).

E. coli PBP1b = E. coli PBP1b (Escherichia coli (strain K12), UniProt P02919); assay: Radioligand competition binding assay with 14C-labeled boronic acid probe, PBP1b
E. coli PBP3 = E. coli PBP3 (Escherichia coli (strain K12), UniProt P0AD68); assay: E. coli PBP3 Bocillin-FL fluorescence polarization competition binding assay
Procedure, shortened: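 Steps: purified PBP (1.5 μM final) mixed with compound (0–1000 μM) in 50 mM Hepes pH 8.0, 300 mM NaCl, 5% glycerol; Bocillin-FL added to 0.1 μM; FP (ex 490, em 520 nm) followed for 60 min. Concentration reducing Bocillin-FL binding reported as EC50.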

[3] = ATCC25922, read-out: MIC E. coli 25922

Chain of E. coli PBP1b (P02919 whole entry): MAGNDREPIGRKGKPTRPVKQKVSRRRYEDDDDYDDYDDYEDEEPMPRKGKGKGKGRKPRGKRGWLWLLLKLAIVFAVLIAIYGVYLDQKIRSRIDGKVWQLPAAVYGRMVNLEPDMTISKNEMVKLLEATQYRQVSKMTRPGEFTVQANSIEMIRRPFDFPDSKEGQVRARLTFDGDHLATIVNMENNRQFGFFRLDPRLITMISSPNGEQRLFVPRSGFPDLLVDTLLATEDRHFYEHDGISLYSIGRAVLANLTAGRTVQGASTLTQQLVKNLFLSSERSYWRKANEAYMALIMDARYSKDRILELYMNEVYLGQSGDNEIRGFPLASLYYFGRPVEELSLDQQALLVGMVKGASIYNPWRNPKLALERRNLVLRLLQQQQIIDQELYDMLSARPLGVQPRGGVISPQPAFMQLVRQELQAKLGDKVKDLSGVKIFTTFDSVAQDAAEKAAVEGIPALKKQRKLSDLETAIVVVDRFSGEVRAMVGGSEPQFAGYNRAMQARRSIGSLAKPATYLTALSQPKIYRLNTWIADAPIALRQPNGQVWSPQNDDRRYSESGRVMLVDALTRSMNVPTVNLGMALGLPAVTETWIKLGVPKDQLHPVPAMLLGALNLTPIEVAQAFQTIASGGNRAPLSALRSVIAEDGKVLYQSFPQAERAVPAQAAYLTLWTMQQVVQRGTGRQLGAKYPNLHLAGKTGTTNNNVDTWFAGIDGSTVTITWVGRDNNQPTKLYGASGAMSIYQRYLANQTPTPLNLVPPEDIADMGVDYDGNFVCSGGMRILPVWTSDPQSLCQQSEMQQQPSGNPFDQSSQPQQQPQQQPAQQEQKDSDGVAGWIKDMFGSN
Chain of E. coli PBP3 (P0AD68 whole entry): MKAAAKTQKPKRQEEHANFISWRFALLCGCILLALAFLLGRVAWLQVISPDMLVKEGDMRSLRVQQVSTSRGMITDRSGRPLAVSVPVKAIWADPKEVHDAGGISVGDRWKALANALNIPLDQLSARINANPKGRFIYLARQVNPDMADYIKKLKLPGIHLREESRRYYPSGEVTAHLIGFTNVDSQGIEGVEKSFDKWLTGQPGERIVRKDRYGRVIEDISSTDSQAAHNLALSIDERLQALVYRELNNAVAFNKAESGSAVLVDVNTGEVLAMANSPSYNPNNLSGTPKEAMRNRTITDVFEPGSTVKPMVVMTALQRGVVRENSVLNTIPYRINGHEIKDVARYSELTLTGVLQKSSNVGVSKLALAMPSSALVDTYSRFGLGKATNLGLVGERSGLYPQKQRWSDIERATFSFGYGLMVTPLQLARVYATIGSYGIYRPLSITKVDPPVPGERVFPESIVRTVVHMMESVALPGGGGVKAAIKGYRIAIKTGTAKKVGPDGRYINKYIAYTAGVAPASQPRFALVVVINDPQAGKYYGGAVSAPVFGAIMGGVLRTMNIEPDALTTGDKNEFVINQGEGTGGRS

SMILES | MIC [1] [mg/L] | MIC [2] [mg/L] | EC50 (E. coli PBP3) [µM] | further results
CCN1CCN(C(=O)N2C[C@@H](O)C[C@@H]2C(=O)N[C@H]2Cc3cccc(C(=O)O)c3OB2O)C(=O)C1=O [Example 9, (R)-3-((2R,4S)-1-(4-ethyl-2,3-dioxopiperazine-1-carbonyl)-4-hydroxypyrrolidine-2-carboxamido)-2-hydroxy-3,4-dihydro-2H-benzo[e][1,2]oxaborinine-8-carboxylic acid] | > 512 | > 512 |  | MIC (E. coli ATCC 25922; [3]): > 128 mg/L; MIC (E. coli AG100): > 128 mg/L; MIC (E. coli 901C): > 128 mg/L; MIC (E. coli AG100A): > 128 mg/L; MIC (K. pneumoniae UMM): > 128 mg/L
CCN1CCN(C(=O)NC(C(=O)N[C@H]2Cc3cccc(C(=O)O)c3OB2O)c2nsc(N)n2)C(=O)C1=O (stereo partly drawn) [Example 10, (3R)-3-(2-(5-amino-1,2,4-thiadiazol-3-yl)-2-(4-ethyl-2,3-dioxopiperazine-1-carboxamido)acetamido)-2-hydroxy-3,4-dihydro-2H-benzo[e][1,2]oxaborinine-8-carboxylic acid] | 8 to 16 (≈ 15.1 to 30.1 µM) | 8 to 16 (≈ 15.1 to 30.1 µM) |  | MIC (E. coli ATCC 25922; [3]): 8 to 16 mg/L; MIC (E. coli AG100): 32 to 64 mg/L; MIC (E. coli 901C): 0.5 to 1 mg/L; MIC (E. coli AG100A): 2 to 4 mg/L; MIC (K. pneumoniae UMM): 8 to 16 mg/L
CCN1CCN(C(=O)N[C@H](CN)C(=O)N[C@H]2Cc3cccc(C(=O)O)c3OB2O)C(=O)C1=O [Example 11, (R)-3-((R)-3-amino-2-(4-ethyl-2,3-dioxopiperazine-1-carboxamido)propanamido)-2-hydroxy-3,4-dihydro-2H-benzo[e][1,2]oxaborinine-8-carboxylic acid, trifluoroacetic acid salt] | 128 to 256 | 128 to 256 |  | EC50 (E. coli PBP1b): < 10 µM
Nc1nc(C(NC(=O)N2CCN(CCF)C(=O)C2=O)C(=O)N[C@H]2Cc3cccc(C(=O)O)c3OB2O)c(Cl)s1 (stereo partly drawn) [Example 13, (3R)-3-(2-(2-amino-5-chlorothiazol-4-yl)-2-(4-(2-fluoroethyl)-2,3-dioxopiperazine-1-carboxamido)acetamido)-2-hydroxy-3,4-dihydro-2H-benzo[e][1,2]oxaborinine-8-carboxylic acid] | 8 to 16 (≈ 13.7 to 27.5 µM) | 8 to 16 (≈ 13.7 to 27.5 µM) | 30 to 500 | MIC (E. coli ATCC 25922; ATCC25922, E. coli ATCC 25922, broth microdilution, read-out: MIC E. coli 25922): 32 to 64 mg/L; MIC (E. coli AG100): 32 to 64 mg/L; MIC (E. coli 901C): < 0.25 mg/L; MIC (E. coli AG100A): 2 to 4 mg/L; MIC (K. pneumoniae UMM): 32 to 64 mg/L
CCN1CCN(C(=O)NCC(CN)(CO)C(=O)N[C@H]2Cc3cccc(C(=O)O)c3OB2O)C(=O)C1=O (stereo partly drawn) [Example 15, (3R)-3-(3-amino-2-((4-ethyl-2,3-dioxopiperazine-1-carboxamido)methyl)-2-(hydroxymethyl)propanamido)-2-hydroxy-3,4-dihydro-2H-benzo[e][1,2]oxaborinine-8-carboxylic acid, trifluoroacetic acid salt] | > 512 | > 512 |  | 
CCN1CCN(C(=O)NC(C(=O)N[C@H]2Cc3cccc(C(=O)O)c3OB2O)c2csc(N)n2)CC1=O (stereo partly drawn) [Example 18, (3R)-3-(2-(2-aminothiazol-4-yl)-2-(4-ethyl-3-oxopiperazine-1-carboxamido)acetamido)-2-hydroxy-3,4-dihydro-2H-benzo[e][1,2]oxaborinine-8-carboxylic acid] | 128 to 256 (≈ 248 to 496 µM) | 128 to 256 (≈ 248 to 496 µM) | 30 to 500 | 
CCN1CCN(C(=O)C[C@H](N)C(=O)N[C@H]2Cc3cccc(C(=O)O)c3OB2O)C(=O)C1=O [Example 19, (R)-3-((S)-2-amino-4-(4-ethyl-2,3-dioxopiperazin-1-yl)-4-oxobutanamido)-2-hydroxy-3,4-dihydro-2H-benzo[e][1,2]oxaborinine-8-carboxylic acid] | > 512 | > 512 |  | 
CCN1CCN(C(=O)NC(C(=O)N[C@H]2Cc3cccc(C(=O)O)c3OB2O)c2ccc(OC)c(OC)c2)C(=O)C1=O (stereo partly drawn) [Example 21, (3R)-3-(2-(3,4-dimethoxyphenyl)-2-(4-ethyl-2,3-dioxopiperazine-1-carboxamido)acetamido)-2-hydroxy-3,4-dihydro-2H-benzo[e][1,2]oxaborinine-8-carboxylic acid] | 128 to 256 (≈ 225 to 450 µM) | 128 to 256 (≈ 225 to 450 µM) | 30 to 500 | 
CCN1CCN(C(=O)N[C@H](CC(=O)O)C(=O)N[C@H]2Cc3cccc(C(=O)O)c3OB2O)C(=O)C1=O [Example 23, (R)-3-((R)-3-carboxy-2-(4-ethyl-2,3-dioxopiperazine-1-carboxamido)propanamido)-2-hydroxy-3,4-dihydro-2H-benzo[e][1,2]oxaborinine-8-carboxylic acid] | > 512 | > 512 | > 500 | EC50 (E. coli PBP1b): > 100 µM
Nc1nc(C(NC(=O)c2cccc(O)c2O)C(=O)N[C@H]2Cc3cccc(C(=O)O)c3OB2O)cs1 (stereo partly drawn) [Example 25, (3R)-3-(2-(2-aminothiazol-4-yl)-2-(2,3-dihydroxybenzamido)acetamido)-2-hydroxy-3,4-dihydro-2H-benzo[e][1,2]oxaborinine-8-carboxylic acid] | > 512 | > 512 |  | EC50 (E. coli PBP1b): < 10 µM
CCN1CCN(C(=O)N2C[C@H](O)C[C@@H]2C(=O)N[C@H]2Cc3cccc(C(=O)O)c3OB2O)C(=O)C1=O [Example 28, (R)-3-((2R,4R)-1-(4-ethyl-2,3-dioxopiperazine-1-carbonyl)-4-hydroxypyrrolidine-2-carboxamido)-2-hydroxy-3,4-dihydro-2H-benzo[e][1,2]oxaborinine-8-carboxylic acid] | > 512 | > 512 |  | 
CCN1CCN(C(=O)NC(C(=O)N[C@H]2Cc3cccc(C(=O)O)c3OB2O)c2cc(OC)c(OC)c(OC)c2)C(=O)C1=O (stereo partly drawn) [Example 30, (3R)-3-(2-(4-ethyl-2,3-dioxopiperazine-1-carboxamido)-2-(3,4,5-trimethoxyphenyl)acetamido)-2-hydroxy-3,4-dihydro-2H-benzo[e][1,2]oxaborinine-8-carboxylic acid] | > 512 | > 512 |  | 
CCN1CCN(C(=O)C[C@@H](N)C(=O)N[C@H]2Cc3cccc(C(=O)O)c3OB2O)C(=O)C1=O [Example 32, (R)-3-((R)-2-amino-4-(4-ethyl-2,3-dioxopiperazin-1-yl)-4-oxobutanamido)-2-hydroxy-3,4-dihydro-2H-benzo[e][1,2]oxaborinine-8-carboxylic acid] | > 512 | > 512 |  | 
CCN1CCN(C(=O)N[C@H](C(=O)N[C@H]2Cc3cccc(C(=O)O)c3OB2O)c2ccc(O)c(O)c2)C(=O)C1=O [Example 38, (R)-3-((S)-2-(3,4-dihydroxyphenyl)-2-(4-ethyl-2,3-dioxopiperazine-1-carboxamido)acetamido)-2-hydroxy-3,4-dihydro-2H-benzo[e][1,2]oxaborinine-8-carboxylic acid] | 2 to 4 (≈ 3.7 to 7.4 µM) | 2 to 4 (≈ 3.7 to 7.4 µM) | 30 to 500 | 
CCN1CCN(C(=O)N[C@@H](C(=O)N[C@@H]2C(=O)N3[C@@H]2SC(C)(C)[C@@H]3C(=O)O)c2ccccc2)C(=O)C1=O [piperacillin, reference compound] |  |  |  | MIC in CTX-M15 producer compared with parent strain with empty pLBII plasmid ([1]; engineered E. coli DH5α with CTX-M15 vs empty vector control): weaker MICs in the CTX-M15 producer; Microbiological Activity (MIC in mg/L), E. coli DH5α/pLBII-CTX-M15 ([1]; engineered strain producing CTX-M15): B (B represents an MIC of 128 to 256 μg/mL); Microbiological Activity (MIC in mg/L), E. coli DH5α/pLBII [2]: F (F represents an MIC<1 μg/mL)

— US12173018B2, “Penicillin-binding protein inhibitors” (priority 2018, dated 2024)
